Reference: patent US9157906B2, “Phosphodiesterase activity and regulation of phosphodiesterase 1B-mediated signaling in brain” (THE ROCKEFELLER UNIVERSITY, priority 2001, dated 2015)
Where a name gives a salt, the structure may show the parent alone.

What was measured:
DARPP-32 at Thr34 = assay: Phosphorylation of DARPP-32 at Thr34 in striatal slices, immunoblot with phosphorylation state-specific antibodies; assay type: cell-based, mouse; conditions: for increase in levels of phospho-Thr34 DARPP-32 and phospho-Ser845 GluR1: forskolin (10, unit not given)
Procedure: (§1) Male PDE1B−/− (null) and WT mice (8-12 weeks of age) were decapitated. The brain was transferred rapidly to an ice-cold surface, blocked, and fixed to the cutting surface of a Vibratome (Ted Pella, Redding, Calif.) maintained at 4° C. The brain was submersed in cold, oxygenated (95% O2/5% CO2) Krebs' bicarbonate buffer of the following composition (in mM): 125 NaCl, 5KCl, 26 NaHCO3, 1.5 CaCl2, 1.5 MgSO4, and 10 glucose, pH 7.4. Coronal mouse brain sections (400 μm in thickness) were cut and pooled in cold buffer. Striatal or nucleus accumbens slices were cut from the coronal sections under a dissecting microscope. Individual slices were preincubated in fresh buffer for 15 min at 30° C.; the buffer was replaced, and preincubation continued for an additional 30 min. […] Slices were frozen immediately in liquid nitrogen and stored at −80° C. until assayed.
Frozen slices were sonicated in homogenization buffer containing 1% SDS. Small aliquots of the homogenate were retained for protein determination by standard assays using bovine serum albumin as the standard. Equal amounts of protein (50 μg) were loaded onto 10% acrylamide gels, separated by SDS/PAGE, and transferred to nitrocellulose membranes by a method described by Tobin et al. (1979. Proc. Natl. Acad. Sci, USA 76:4350-4354). […]
(§2) Chemiluminescence was detected by autoradiography and bands were quantified by analysis of scanned images using NIH Image 1.52 software. Because the linear range for quantitation of ECL signals by densitometry is limited, several film exposures were obtained for each set of samples to insure that the signals were within a density range that allowed for accurate quantitation. […]

[1] = test system: GluR1 AMPA receptor at Ser845; assay: Phosphorylation of GluR1 AMPA receptor at Ser845 in striatal slices, immunoblot with phosphorylation state-specific antibodies; assay type: cell-based, mouse; conditions: striatal slices of PDE1B null mice; 10 μM, 10 minutes
Procedure: as §1
Frozen slices were sonicated in homogenization buffer containing 1% SDS. […]
as §2

[2] = test system: D1-mediated phosphorylation; assay: D1-mediated phosphorylation in nucleus accumbens slices; assay type: cell-based, mouse; conditions: D1 receptor agonist
Procedure: Male PDE1B−/− (null) and WT mice (8-12 weeks of age) were decapitated. The brain was transferred rapidly to an ice-cold surface, blocked, and fixed to the cutting surface of a Vibratome (Ted Pella, Redding, Calif.) maintained at 4° C. The brain was submersed in cold, oxygenated (95% O2/5% CO2) Krebs' bicarbonate buffer of the following composition (in mM): 125 NaCl, 5KCl, 26 NaHCO3, 1.5 CaCl2, 1.5 MgSO4, and 10 glucose, pH 7.4. Coronal mouse brain sections (400 μm in thickness) were cut and pooled in cold buffer. Striatal or nucleus accumbens slices were cut from the coronal sections under a dissecting microscope. Individual slices were preincubated in fresh buffer for 15 min at 30° C.; the buffer was replaced, and preincubation continued for an additional 30 min. At the end of this second preincubation period the buffer was replaced with Krebs' buffer or buffer containing test substances for 5 min. Slices were frozen immediately in liquid nitrogen and stored at −80° C. until assayed. […]
as §2

PDE1B null mice = assay: Methamphetamine-stimulated horizontal locomotor activity (Digiscan apparatus); conditions: 1 mg/kg subcutaneous

SMILES: Oc1cc2c(c(Cl)c1O)CCNCC2c1ccccc1 (stereo not drawn) [SKF81297]
- increase for phospho-Thr34 as compared to controls (DARPP-32 at Thr34; striatal slices of PDE1B null mice, 10 μM, 10 minutes): 15 fold
- increase for phospho-Ser845 as compared to controls [1]: 13 fold
- D1-mediated phosphorylation in PDE1B null mice as compared to wild-type mice [2]: enhanced

SMILES: C=C[C@@]1(C)CC(=O)[C@]2(O)[C@@]3(C)[C@@H](O)CCC(C)(C)[C@@H]3[C@H](O)[C@H](OC(C)=O)[C@@]2(C)O1 [Forskolin]
- increase in levels of phospho-Thr34 DARPP-32 and phospho-Ser845 GluR1 (DARPP-32 at Thr34; striatal slices from PDE1B null mice): 65 fold
- increase in levels of phospho-Thr34 DARPP-32 and phospho-Ser845 GluR1 (DARPP-32 at Thr34; striatal slices from wild-type mice): 21 fold

SMILES: CN[C@@H](C)Cc1ccccc1 [methamphetamine, d-methamphetamine hydrochloride]
- duration of stimulated hyperactivity response after treatment (PDE1B null mice): 90 min
